Reference: ChEMBL document CHEMBL3045770, “Design and synthesis of some thieno[2,3-c]pyridazine derivatives of expected anticancer activity” (2013)

Key:
Format in all cases: functional
HOP-62 = test: Cytotoxicity against Homo sapiens (human) HOP62 assessed as cell growth at 10 uM after 48 hr by SRB assay relative to control; details: HOP-62, 48 h, read-out: Activity
EKVX = test: Cytotoxicity against Homo sapiens (human) EKVX assessed as cell growth at 10 uM after 48 hr by SRB assay relative to control; details: read-out: Activity
SK-MEL-2 = test: Cytotoxicity against Homo sapiens (human) SK-MEL-2 assessed as cell growth at 10 uM after 48 hr by SRB assay relative to control; details: SK-MEL-2, 48 h, read-out: Activity
RXF 393 = test: Cytotoxicity against Homo sapiens (human) RXF393 assessed as cell growth at 10 uM after 48 hr by SRB assay relative to control; details: RXF 393, 48 h, read-out: Activity
SK-OV-3 = test: Cytotoxicity against Homo sapiens (human) SKOV3 assessed as cell growth at 10 uM after 48 hr by SRB assay relative to control; details: SK-OV-3, 48 h, read-out: Activity
NCI-H23 = test: Cytotoxicity against Homo sapiens (human) NCI-H23 assessed as cell growth at 10 uM after 48 hr by SRB assay relative to control; details: NCI-H23, 48 h, read-out: Activity
SF-268 = test: Cytotoxicity against Homo sapiens (human) SF268 assessed as cell growth at 10 uM after 48 hr by SRB assay relative to control; details: SF-268, 48 h, read-out: Activity
MDA-MB-231 = test: Cytotoxicity against Homo sapiens (human) MDA-MB-231 assessed as cell growth at 10 uM after 48 hr by SRB assay relative to control; details: MDA-MB-231, 48 h, read-out: Activity
HT-29 = test: Cytotoxicity against Homo sapiens (human) HT-29 assessed as cell growth at 10 uM after 48 hr by SRB assay relative to control; details: HT-29, 48 h, read-out: Activity
SN12C = test: Cytotoxicity against Homo sapiens (human) SN12C assessed as cell growth at 10 uM after 48 hr by SRB assay relative to control; details: read-out: Activity
MDA-MB-468 = test: Cytotoxicity against Homo sapiens (human) MDA-MB-468 assessed as cell growth at 10 uM after 48 hr by SRB assay relative to control; details: MDA-MB-468, 48 h, read-out: Activity
SNB-75 = test: Cytotoxicity against Homo sapiens (human) SNB75 assessed as cell growth at 10 uM after 48 hr by SRB assay relative to control; details: SNB-75, 48 h, read-out: Activity
MCF7 = test: Cytotoxicity against Homo sapiens (human) MCF7 assessed as cell growth at 10 uM after 48 hr by SRB assay relative to control; details: MCF7, 48 h, read-out: Activity
HL-60(TB) = test: Cytotoxicity against Homo sapiens (human) HL-60(TB) assessed as cell growth at 10 uM after 48 hr by SRB assay relative to control; details: HL-60, 48 h, read-out: Activity
SNB-19 = test: Cytotoxicity against Homo sapiens (human) SNB19 assessed as cell growth at 10 uM after 48 hr by SRB assay relative to control; details: SNB-19, 48 h, read-out: Activity
CAKI-1 = test: Cytotoxicity against Homo sapiens (human) Caki1 assessed as cell growth at 10 uM after 48 hr by SRB assay relative to control; details: CAKI-1, 48 h, read-out: Activity
SK-MEL-28 = test: Cytotoxicity against Homo sapiens (human) SK-MEL-28 assessed as cell growth at 10 uM after 48 hr by SRB assay relative to control; details: SK-MEL-28, 48 h, read-out: Activity
SK-MEL-5 = test: Cytotoxicity against Homo sapiens (human) SK-MEL-5 assessed as cell growth at 10 uM after 48 hr by SRB assay relative to control; details: SK-MEL-5, 48 h, read-out: Activity
COLO 205 = test: Cytotoxicity against Homo sapiens (human) COLO205 assessed as cell growth at 10 uM after 48 hr by SRB assay relative to control; details: COLO 205, 48 h, read-out: Activity
HCT-15 = test: Cytotoxicity against Homo sapiens (human) HCT15 assessed as cell growth at 10 uM after 48 hr by SRB assay relative to control; details: HCT-15, 48 h, read-out: Activity
UACC-257 = test: Cytotoxicity against Homo sapiens (human) UACC257 assessed as cell growth at 10 uM after 48 hr by SRB assay relative to control; details: UACC-257, 48 h, read-out: Activity
OVCAR-3 = test: Cytotoxicity against Homo sapiens (human) OVCAR3 assessed as cell growth at 10 uM after 48 hr by SRB assay relative to control; details: OVCAR-3, 48 h, read-out: Activity
[1] = Cytotoxicity against Homo sapiens (human) NCI-ADR-RES assessed as cell growth at 10 uM after 48 hr by SRB assay relative to control; details: read-out: Activity
SW-620 = test: Cytotoxicity against Homo sapiens (human) SW620 assessed as cell growth at 10 uM after 48 hr by SRB assay relative to control; details: SW-620, 48 h, read-out: Activity
NCI-H522 = test: Cytotoxicity against Homo sapiens (human) NCI-H522 assessed as cell growth at 10 uM after 48 hr by SRB assay relative to control; details: NCI-H522, 48 h, read-out: Activity
NCI-H460 = test: Cytotoxicity against Homo sapiens (human) NCI-H460 assessed as cell growth at 10 uM after 48 hr by SRB assay relative to control; details: NCI-H460, 48 h, read-out: Activity
HCT-116 = test: Cytotoxicity against Homo sapiens (human) HCT116 assessed as cell growth at 10 uM after 48 hr by SRB assay relative to control; details: HCT-116, 48 h, read-out: Activity
OVCAR-8 = test: Cytotoxicity against Homo sapiens (human) OVCAR8 assessed as cell growth at 10 uM after 48 hr by SRB assay relative to control; details: OVCAR-8, 48 h, read-out: Activity
DU-145 = test: Cytotoxicity against Homo sapiens (human) DU145 assessed as cell growth at 10 uM after 48 hr by SRB assay relative to control; details: DU-145, 48 h, read-out: Activity
M14 = test: Cytotoxicity against Homo sapiens (human) M14 assessed as cell growth at 10 uM after 48 hr by SRB assay relative to control; details: M14, 48 h, read-out: Activity
LOX IMVI = test: Cytotoxicity against Homo sapiens (human) LOXIMVI assessed as cell growth at 10 uM after 48 hr by SRB assay relative to control; details: read-out: Activity
MDA-MB-435 = test: Cytotoxicity against Homo sapiens (human) MDA-MB-435 assessed as cell growth at 10 uM after 48 hr by SRB assay relative to control; details: MDA-MB-435, 48 h, read-out: Activity

Row | SMILES | growth at 10 µM (HOP-62) [%] | growth at 10 µM (SK-MEL-2) [%] | growth at 10 µM (RXF 393) [%] | growth at 10 µM (SK-OV-3) [%] | growth at 10 µM (NCI-H23) [%] | growth at 10 µM (SF-268) [%] | growth at 10 µM (MDA-MB-231) [%] | growth at 10 µM (HT-29) [%] | growth at 10 µM (SN12C) [%] | growth at 10 µM (MDA-MB-468) [%] | growth at 10 µM (SNB-75) [%] | growth at 10 µM (MCF7) [%] | growth at 10 µM (HL-60(TB)) [%] | growth at 10 µM (SNB-19) [%] | growth at 10 µM (CAKI-1) [%] | growth at 10 µM (SK-MEL-28) [%] | growth at 10 µM (SK-MEL-5) [%] | growth at 10 µM (COLO 205) [%] | growth at 10 µM (HCT-15) [%] | growth at 10 µM (UACC-257) [%] | also measured
1 | Oc1c(-c2nnc(-c3ccccc3)o2)sc2nnc(-c3ccccc3)c(-c3ccccc3)c12 | 73.7 | 106 | 85.6 | 83 | 90.4 | 85.5 | 89.2 | 103 | 61.4 | 64.7 | 84.4 | 58 | 83.2 | 57.2 | 29.1 | 85.2 | 71.2 | 102 | 36.6 | 99.8 | growth at 10 µM (EKVX): 94.1%; growth at 10 µM (OVCAR-3): 72.4%; growth at 10 µM [1]: 18.8%; growth at 10 µM (SW-620): 64.4%; growth at 10 µM (NCI-H522): 97.2%; growth at 10 µM (NCI-H460): 39.8%; growth at 10 µM (HCT-116): 47.4%; growth at 10 µM (OVCAR-8): 66.8%; growth at 10 µM (DU-145): 106%; growth at 10 µM (M14): 69.6%; growth at 10 µM (LOX IMVI): 65.7%; growth at 10 µM (MDA-MB-435): 78.4%
2 | CC(=O)Oc1c(C2=NN(C(C)=O)C(c3ccccc3[N+](=O)[O-])O2)sc2nnc(-c3ccccc3)c(-c3ccccc3)c12 (centres undefined) | 109 | 101 | 93.5 | 106 | 101 | 85.6 | 89.6 | 87.5 | 76.3 | 86.5 | 76.3 | 64 | 58.9 | 88.6 | 98 | 97.1 | 98.5 | 108 | 78 | 101 | growth at 10 µM (OVCAR-3): 93.4%; growth at 10 µM [1]: 98.4%; growth at 10 µM (SW-620): 82.8%; growth at 10 µM (NCI-H522): 92%; growth at 10 µM (NCI-H460): 100%; growth at 10 µM (HCT-116): 76.8%; growth at 10 µM (OVCAR-8): 90.1%; growth at 10 µM (DU-145): 104%; growth at 10 µM (M14): 91.8%; growth at 10 µM (LOX IMVI): 105%; growth at 10 µM (MDA-MB-435): 97.9%
3 | CC1=NN(C(=O)c2sc3nnc(-c4ccccc4)c(-c4ccccc4)c3c2O)C(=O)C1 | 82.8 | 110 | 95.6 | 90.6 | 82.6 | 88.3 | 122 | 119 | 93.8 | 80.5 | 90 | 85.1 | 69.4 | 60.7 | 31 | 83.5 | 80.2 | 111 | 49 | 86.8 | growth at 10 µM (EKVX): 74.3%; growth at 10 µM (OVCAR-3): 84.7%; growth at 10 µM [1]: 16%; growth at 10 µM (SW-620): 79.4%; growth at 10 µM (NCI-H522): 87.4%; growth at 10 µM (NCI-H460): 52.2%; growth at 10 µM (HCT-116): 89.8%; growth at 10 µM (OVCAR-8): 87%; growth at 10 µM (DU-145): 97.8%; growth at 10 µM (M14): 87.4%; growth at 10 µM (LOX IMVI): 97.6%; growth at 10 µM (MDA-MB-435): 83.7%
4 | CNc1nnc(-c2sc3nnc(-c4ccccc4)c(-c4ccccc4)c3c2O)s1 | 115 | 126 | 103 | 97.7 | 115 | 106 | 104 | 102 | 94.2 | 92.6 | 87.9 | 88.7 | 107 | 105 | 72 | 111 | 104 | 131 | 98.9 | 94.5 | growth at 10 µM (EKVX): 112%; growth at 10 µM (OVCAR-3): 116%; growth at 10 µM [1]: 105%; growth at 10 µM (SW-620): 105%; growth at 10 µM (NCI-H522): 111%; growth at 10 µM (NCI-H460): 106%; growth at 10 µM (HCT-116): 102%; growth at 10 µM (OVCAR-8): 104%; growth at 10 µM (DU-145): 135%; growth at 10 µM (M14): 107%; growth at 10 µM (LOX IMVI): 103%; growth at 10 µM (MDA-MB-435): 103%
5 | Oc1c(-c2nnc(SCc3ccccc3)o2)sc2nnc(-c3ccccc3)c(-c3ccccc3)c12 | 105 | 93.1 | 90 | 100 | 106 | 103 | 97.9 | 89.8 | 99.5 | 101 | 87.8 | 82.2 | 69.8 | 103 | 114 | 98.9 | 99.7 | 122 | 93.6 | 134 | growth at 10 µM (EKVX): 122%; growth at 10 µM (OVCAR-3): 126%; growth at 10 µM [1]: 93.5%; growth at 10 µM (SW-620): 109%; growth at 10 µM (NCI-H522): 88.5%; growth at 10 µM (NCI-H460): 111%; growth at 10 µM (HCT-116): 83.3%; growth at 10 µM (OVCAR-8): 104%; growth at 10 µM (DU-145): 112%; growth at 10 µM (M14): 108%; growth at 10 µM (LOX IMVI): 84%; growth at 10 µM (MDA-MB-435): 99.4%
